Data on two compounds can be found in patent US11497819B2, “PSMA ligands for imaging and endoradiotherapy” (priority 2017, dated 2022).

In data set [1] the test system is LNCaP-tumor. Details: species or system CB-17 SCID mice. Conditions: male, CB-17 SCID, mouse, in vivo, 85 min. On the procedure: All animal experiments were carried out in accordance with the general animal welfare regulations in Germany (Deutsches Tierschutzgesetz, approval #55.2-1-54-2532-71-13). For the tumor model, LNCaP cells (approx. 10^7 cells) were suspended in serum-free DMEM-F12 medium and Matrigel (1/1; v/v) (BD Biosciences, Germany) and inoculated onto the right shoulder of male, 6 to 8 weeks old CB-17 SCID mice (Charles River Laboratories, Sulzfeld, Germany). Animals were used after the tumor size reached 4 to 8 mm in diameter for experiments.
Imaging experiments were conducted using a Siemens Inveon small animal PET and the data analyzed by the associated Inveon Research Workplace software. Mice were anaesthetized with isoflurane and approx. 4.0 to 17 MBq of the ^68Ga-labeled compounds were injected via tail vein (approx. 150 to 300 μL). Dynamic imaging was carried out after on-bed injection for 90 min. The static blockade image was obtained after 1 h p.i. with 15 min acquisition time. PSMA-blockade was achieved by coinjection of 8 mg/kg of 2-PMPA-solution (PBS). All images were reconstructed using an OSEM3D algorithm without […] and attenuation correction.

Data set [2] has as its system LNCaP cells. The data set can be described thus: Internalization into LNCaP cells, relative cellular uptake to ([^125I]I-BA)KuE. Conditions: c = 1.0 nM ^177Lu-labeled inhibitor, 37° C., 60 min, corrected for non-specific binding (10 μM 2-PMPA), mean ± SD (n = 3). It counts as cell-based.
Data set [3] addresses T1, HSA (Homo sapiens, UniProt P02768).
T1 construct: purchased Daicel Chemical Industries / Chiral Technologies Europe (Illkirch, France)
Put plainly: HSA binding on Chiralpak HSA column. The class given is in vitro ADME. Conditions: after logarithmic plotting and calibration (n = 1). As to the method:
HSA binding experiments were performed as previously described. […] For each run, 10 μL of the solution containing the inhibitor was injected into the RP-HPLC system and the retention time measured. […] Non-linear regression was established with OriginPro 2016G.

The target in data set [4] is T2, PSMA (Homo sapiens, UniProt Q04609).
T2 construct: host or cells: LNCaP cells
Put plainly: Competitive binding assay (IC50) on LNCaP cells with ([^125I]I-BA)KuE as radioligand. Conditions: LNCaP cells 1.5*10^5 cells/well, 1 h, 4° C., HBSS + 1% BSA, radioligand ([^125I]I-BA)KuE; mean ± SD (n = 3). As to the method: One day (24 h±2 h) prior to all experiments with LNCaP cells, the cultivated cells were harvested using a mixture of trypsin/ethylendiaminetetraacetate (0.05%/0.02%) and PBS and centrifuged. After centrifugation, the supernatant was disposed and the cell pellet resuspended in culture medium. Afterwards, cells were counted with a hemocytometer (Neubauer) and seeded in 24-well plates.
After removal of the culture medium, the cells were treated once with HBSS (500 μL, Hank's balanced salt solution, Biochrom, Berlin, Germany, with addition of 1% BSA) and left 15 min on ice for equilibration in HBSS (200 μL, 1% BSA). […] All experiments were performed at least three times for each concentration. After 60 min incubation on ice, the experiment was terminated by removal of the medium and consecutive rinsing with HBSS (200 μL). The media of both steps were combined in one fraction and represent the amount of free radioligand. Afterwards, the cells were lysed with NaOH (250 μL, 1.0 m) and united with the HBSS (200 μL) of the following washing step. Quantification of bound and free radioligand was accomplished in a γ-counter.

SMILES strings stand for the structures.

T1 sequence (P02768 25-609): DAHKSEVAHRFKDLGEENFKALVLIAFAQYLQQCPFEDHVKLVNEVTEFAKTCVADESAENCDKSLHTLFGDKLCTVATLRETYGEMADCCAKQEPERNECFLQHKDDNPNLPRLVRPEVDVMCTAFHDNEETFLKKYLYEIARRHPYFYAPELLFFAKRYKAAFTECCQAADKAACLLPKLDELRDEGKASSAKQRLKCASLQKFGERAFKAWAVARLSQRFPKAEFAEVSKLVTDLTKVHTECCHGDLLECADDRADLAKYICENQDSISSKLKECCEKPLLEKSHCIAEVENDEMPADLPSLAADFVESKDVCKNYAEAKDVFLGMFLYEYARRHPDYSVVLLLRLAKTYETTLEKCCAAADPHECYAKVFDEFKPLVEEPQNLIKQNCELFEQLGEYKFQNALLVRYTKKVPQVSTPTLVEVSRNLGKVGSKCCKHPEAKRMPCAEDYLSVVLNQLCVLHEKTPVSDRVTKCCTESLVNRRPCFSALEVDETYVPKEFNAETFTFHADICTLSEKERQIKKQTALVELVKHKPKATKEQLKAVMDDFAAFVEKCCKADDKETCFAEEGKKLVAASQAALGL
T2 sequence (Q04609 whole entry): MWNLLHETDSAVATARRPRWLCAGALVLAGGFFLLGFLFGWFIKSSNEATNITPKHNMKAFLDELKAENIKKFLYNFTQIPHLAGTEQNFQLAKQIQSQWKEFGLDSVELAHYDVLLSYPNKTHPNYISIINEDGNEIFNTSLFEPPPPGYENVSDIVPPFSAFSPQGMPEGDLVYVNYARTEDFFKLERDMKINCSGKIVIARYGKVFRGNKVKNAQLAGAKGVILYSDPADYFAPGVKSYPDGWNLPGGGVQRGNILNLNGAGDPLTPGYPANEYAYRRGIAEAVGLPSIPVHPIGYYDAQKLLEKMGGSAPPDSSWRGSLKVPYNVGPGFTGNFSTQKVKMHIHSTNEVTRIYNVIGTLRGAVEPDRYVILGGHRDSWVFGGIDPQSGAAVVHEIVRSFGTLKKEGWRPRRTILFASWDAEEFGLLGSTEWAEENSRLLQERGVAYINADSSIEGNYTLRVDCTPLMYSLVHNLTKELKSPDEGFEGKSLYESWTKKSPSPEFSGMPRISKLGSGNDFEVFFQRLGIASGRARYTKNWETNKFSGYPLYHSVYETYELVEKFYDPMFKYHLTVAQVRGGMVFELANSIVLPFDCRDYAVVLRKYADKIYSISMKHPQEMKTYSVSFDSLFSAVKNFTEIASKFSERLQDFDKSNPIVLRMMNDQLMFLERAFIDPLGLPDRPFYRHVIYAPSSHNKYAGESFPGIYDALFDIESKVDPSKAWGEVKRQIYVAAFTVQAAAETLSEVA

As to `O=C(O)CC[C@H](NC(=O)N[C@@H](CCCCNC(=O)CCCCC[C@H](NC(=O)c1ccc([N+](=O)[O-])cc1[N+](=O)[O-])C(=O)NCCCC[C@@H](NC(=O)[C@@H](Cc1ccccc1)NC(=O)[C@@H](Cc1ccc(O)c(I)c1)NC(=O)CCC(C(=O)O)N1CCN(CC(=O)O)CCN(CC(=O)O)CCN(CC(=O)O)CC1)C(=O)O)C(=O)O)C(=O)O` (stereo partly drawn) [PSMA-36, DOTAGA-y(3-I)fk(L-Asu[KuE]-2,4-DNBA)], the “tumor uptake (PET)” value in data set [1] turned out to be 3.5 % ID/mL. Besides, the Internalization in data set [2] stood at 189.8 ± 37.5%. Also, the “HSA (albumin binding)” value in data set [3] is reported as 82.5%.
In the case of `O=C(O)CC[C@H](NC(=O)N[C@@H](CCCCNC(=O)[C@H](Cc1ccc2ccccc2c1)NC(=O)[C@H]1CC[C@H](CNC(=O)CN2CCN(CC(=O)O)CCN(CC(=O)O)CCN(CC(=O)O)CC2)CC1)C(=O)O)C(=O)O` [PSMA-617, reference compound], in data set [4], the IC50 was determined as 3.8 ± 1.7 nM. In addition, in data set [2], the Internalization turned out to be 160.1 ± 1.5%. Moreover, the “HSA (albumin binding)” value in data set [3] turned out to be 74.7%.

Broadly, the IC50 is the concentration that gives 50% inhibition.
